Source: US5679828A (priority 1995, dated 1997)
Like-named read-outs stand apart in the source and are kept apart here.

Assays:
HIV-1 [1] = assay: HIV-1 replication in acutely infected H9 lymphocytes (p24 antigen ELISA); format: cell-based, HIV-1 (IIIB isolate); set-up: TI50: unit not given beside the values
Protocol: The cell lines were used in experiments only when in the logarithmic phase of growth, whereas uninfected peripheral blood mononuclear cells (PBMCs) were first stimulated with PHA (1 μg/mL) for three days. […] The cell lines and PBMCs were washed thoroughly to remove unadsorbed virions and resuspended at 4×10^5 cells/ml in complete medium or complete medium with 10% v/v interleukin 2 (IL-2), respectively. One ml. aliquots were placed into wells of 24-well culture plates containing an equal volume of test compounds (diluted in the appropriate culture medium). The toxicity of each compound was assessed by determining the number of compound-exposed uninfected cells that remained after four days at 37° C. and 5% CO2. A p24 antigen ELISA assay was used to determine the level of virus released in the medium of the HIV-infected cultures. The p24 antigen assay used a HIV-1 anti-p24 specific monoclonal antibody as the capture antibody coated onto 96-well plates. […] P24 in the culture medium was quantitated against a standard curve containing known amounts of p24. The effective (EC50) and inhibitory (IC50) concentrations for anti-HIV activity and cytotoxicity, respectively, were determined.
^a Concentration which inhibits viral replication in H9 cells by 50%

HIV-1 [2] = conditions: cited from earlier work
[3] = target: T1, HIV-1 reverse transcriptase (Human immunodeficiency virus type 1 group M subtype B, UniProt P04585); assay: HIV-1 reverse transcriptase assay; format: biochemical, HIV-1 IIIB
T1 construct: virion associated HIV-1 IIIB reverse transcriptase; endogenous in cells; host or cells: HIV-1 IIIB virions lysed in Triton X-100
Protocol: Ten microliters of virion associated HIV-1 IIIB reverse transcriptase in 1% Triton X-100 was mixed with 50 microliters of a reaction cocktail containing 50 mM Tri-HCl (pH 7.8), 75 mM KCl, 2 mM dithiothreitol, 5 mM MgCl2, 5 mg/ml poly (A) [Pharmacia], 0.25 unit/ml oligo(dT)[Pharmacia]; 0.05% Nonidet P40 and 10 mCi/ml ^32 P-dTTP in the presence of various concentrations of test compound. After incubating for one hour at 37° C., 40 microliters of the reaction mixture was applied to a Schleicher & Schuell NA 45 membrane saturated with […] (0.3M NaCl, 30 mM sodium citrate, pH 7.0) in a Schleicher & Schuell Minifold over one sheet of GB003 filter paper. Each well of the minifold was washed four times with 2×SSC. Autoradiography was performed, and radioactivity was quantified with a Packard Matrix (Meriden, Conn.) 9600 direct beta counter.

[4] = tested on: HIV induced membrane fusion; assay: cells; format: cell-based, HIV-1LAI; conditions: for IC100: Human immunodeficiency virus 1, CEM-4, 24 h, read-out: Fusion Assay IC100
Protocol: (§1) MOLT-4 cells (7×10^4) were incubated with HIV-1LAI chronically infected CEM cells (10^4) in 96-well half-area flat-bottomed plates (Costar) in 100 microliters culture medium were incubated with the cell mixtures at 37° C. for 24 hours. Multinucleated syncytia were enumerated by microscopic examination of the entire contents of each well.

[5] = tested on: cells of the fusion assay; assay: Cytotoxicity noted in the fusion assay; format: cell-based; conditions: Table 1 footnotes; one-day fusion assay
Protocol: as §1, with “Cell fusions were performed as described in Matthews et al., Proc. Natl. Acad. Sci. USA, 1987, 84, 5424-5428. MOLT-4” for “MOLT-4”
^d No noticeable cytotoxicity at 100 μg/mL
^e Toxic to the cells at 80 μg/mL in oneday fusion assay
^f Toxic at 40 μg/mL under the assay conditions

HIV-1 [6] = assay: HIV-1 replication in PHA-stimulated PBMCs (p24 antigen ELISA); format: cell-based, HIV-1 (IIIB isolate); set-up: TI50: unit not given beside the values; conditions: for EC50: Human immunodeficiency virus 1, PBMC; for T.I. values in PBMCs compared with H9 cells: PBMCs versus H9 cells; for TI50: Table 2, PBMCs
Protocol: The T cell line, H9, and the promonocytic cell line, U937, were maintained separately in continuous culture with complete medium (RPMI 1640 with 10% fetal calf serum) at 5% CO2 and 37° C. The cell lines were used in experiments only when in the logarithmic phase of growth, whereas uninfected peripheral blood mononuclear cells (PBMCs) were first stimulated with PHA (1 μg/mL) for three days. All cell targets were incubated with HIV-1 (IIIB isolate, TCID50 10^4 IU/ml, at a multiplicity of infection of 0.01-0.01 IU/cell) for one hour at 37° C. and 5% CO2. The cell lines and PBMCs were washed thoroughly to remove unadsorbed virions and resuspended at 4×10^5 cells/ml in complete medium or complete medium with 10% v/v interleukin 2 (IL-2), respectively. One ml. aliquots were placed into wells of 24-well culture plates containing an equal volume of test compounds (diluted in the appropriate culture medium). The toxicity of each compound was assessed by determining the number of compound-exposed uninfected cells that remained after four days at 37° C. and 5% CO2. A p24 antigen ELISA assay was used to determine the level of virus released in the medium of the HIV-infected cultures. The p24 antigen assay used a HIV-1 anti-p24 specific monoclonal antibody as the capture antibody coated onto 96-well plates. Following a sample incubation period, rabbit serum containing antibodies for HIV-1 p24 was used to tag any p24 "captured: onto the microtiter well surface. Peroxidase conjugated goat anti-rabbit serum was then used to tag HIV-1 p24 specific rabbit antibodies that had complexed with captured p24. […] The cutoff for the p24 ELISA assay was 12.5 pg/ml. P24 in the culture medium was quantitated against a standard curve containing known amounts of p24. The effective (EC50) and inhibitory (IC50) concentrations for anti-HIV activity and cytotoxicity, respectively, were determined.

[7] = Human immunodeficiency virus 1, H9, Table 1, inhibits viral replication in H9 cells by 50%, read-out: EC50
[8] = Human immunodeficiency virus 1, Lymphocyte, acutely infected H9 lymphocytes
[9] = Table 1, H9 cells, therapeutic index
[10] = acutely infected H9 lymphocytes
[11] = earlier data, H9 lymphocyte cells
[12] = earlier data, HIV-1 replication in H9 lymphocyte cells
[13] = Table 1, inhibit 50% of HIV-1 RT activity, read-out: HIV-RT Assay IC50
[14] = PHA-stimulated PBMCs, read-out: EC50
[15] = Human immunodeficiency virus 1, Lymphocyte, Table 2, H9

CC(C)[C@@H]1CC[C@]2(C(=O)O)CC[C@]3(C)[C@H](CC[C@@H]4[C@@]5(C)CC[C@H](OC(=O)C(C)(C)CC(=O)O)C(C)(C)[C@@H]5CC[C@]43C)[C@@H]12 [Compound 7, 3-O-(2',2'-dimethylsuccinyl)-dihydrobetulinic acid]
EC50 (HIV-1 [1]; [7]): 560 nM | EC50 (HIV-1 [1]; [8]): 560 nM | T.I. (HIV-1 [1]; [9]): 13.8 | T.I. (HIV-1 [1]; [10]): 13.8

CC(=O)[C@@H]1CC[C@]2(C(=O)O)CC[C@]3(C)[C@H](CC[C@@H]4[C@@]5(C)CC[C@H](O)C(C)(C)[C@@H]5CC[C@]43C)[C@@H]12 [platanic acid]
T.I. (HIV-1 [2]; [11]): 14 | EC50 (HIV-1 [2]; [12]): 6500 nM

C=C(C)[C@@H]1CC[C@]2(C(=O)O)CC[C@]3(C)[C@H](CC[C@@H]4[C@@]5(C)CC[C@H](OC(=O)C(C)(C)CC(=O)O)C(C)(C)[C@@H]5CC[C@]43C)[C@@H]12 [Compound 2, 3-O-(2',2'-dimethylsuccinyl)betulinic acid]
IC50 [3, 13]: > 171000 nM | IC100 [4]: 20 µg/mL | inhibition of syncytia formation, compounds 2 and 3 compared ([4]; compound 3 versus compound 2): inhibited syncytia formation at the same concentration | EC50 (HIV-1 [1]; [7]): 2700 nM | EC50 (HIV-1 [1]; [8]): 2700 nM | T.I. (HIV-1 [1]; [9]): 5.9 | T.I. (HIV-1 [1]; [10]): 5.9 | cytotoxicity in fusion assay (footnotes d, e, f) [5]: d (No noticeable cytotoxicity at 100 μg/mL)

CC(C)[C@@H]1CC[C@]2(C(=O)O)CC[C@]3(C)[C@H](CC[C@@H]4[C@@]5(C)CC[C@H](OC(=O)CC(C)(C)CC(=O)O)C(C)(C)[C@@H]5CC[C@]43C)[C@@H]12 [Compound 9, 3-O-(3',3'-dimethylglutaryl)-dihydrobetulinic acid]
IC50 [3, 13]: > 166000 nM | IC100 [4]: 20 µg/mL | EC50 (HIV-1 [1]; [7]): 5.7 nM | T.I. (HIV-1 [1]; [9]): 1,017.0 | EC50 (HIV-1 [6]): 17.5 ng/mL | EC50 (HIV-1 [6]; [14]): 29.2 nM | T.I. values in PBMCs compared with H9 cells (HIV-1 [6]): lower than those in H9 cells | TI50 (HIV-1 [6]): 229 | cytotoxicity in fusion assay (footnotes d, e, f) [5]: f (Toxic at 40 μg/mL under the assay conditions)

CC(C)[C@@H]1CC[C@]2(C(=O)O)CC[C@]3(C)[C@H](CC[C@@H]4[C@@]5(C)CC[C@H](OC(=O)CC(C)(C)C(=O)O)C(C)(C)[C@@H]5CC[C@]43C)[C@@H]12 [Compound 8, 3-O-(3',3'-dimethylsuccinyl)-dihydrobetulinic acid]
IC50 [3, 13]: > 170000 nM | IC100 [4]: 20 µg/mL | EC50 (HIV-1 [1]; [8]): < 0.017 nM | T.I. (HIV-1 [1]; [9]): 14,000-98,000 | T.I. (HIV-1 [1]; [10]): more than 400,000 | EC50 (HIV-1 [6]): 1.75 ng/mL | EC50 (HIV-1 [6]; [14]): 2.99 nM | T.I. values in PBMCs compared with H9 cells (HIV-1 [6]): lower than those in H9 cells | TI50 (HIV-1 [6]): 2,286 | cytotoxicity in fusion assay (footnotes d, e, f) [5]: f (Toxic at 40 μg/mL under the assay conditions)

CC(C)[C@@H]1CC[C@]2(C(=O)O)CC[C@]3(C)[C@H](CC[C@@H]4[C@@]5(C)CC[C@H](O)C(C)(C)[C@@H]5CC[C@]43C)[C@@H]12 [Compound 6, dihydrobetulinic acid, reference compound]
IC50 [3]: > 218000 nM | T.I. (HIV-1 [2]; [11]): 14 | EC50 (HIV-1 [2]; earlier data, anti-HIV activity, unit inferred): 900 nM | IC100 [4]: > 100 µg/mL | EC50 (HIV-1 [1]; [7]): 900 nM | T.I. (HIV-1 [1]; [9]): 14.0

C=C(C)[C@@H]1CC[C@]2(C(=O)O)CC[C@]3(C)[C@H](CC[C@@H]4[C@@]5(C)CC[C@H](OC(=O)CC(C)(C)CC(=O)O)C(C)(C)[C@@H]5CC[C@]43C)[C@@H]12 [Compound 4, 3-O-(3',3'-dimethylglutaryl)-betulinic acid]
IC50 [3, 13]: > 167000 nM | IC100 [4]: 30 µg/mL | cytotoxicity in fusion assay (footnotes d, e, f) [5]: d (No noticeable cytotoxicity at 100 μg/mL)

C=C(C)[C@@H]1CC[C@]2(C(=O)O)CC[C@]3(C)[C@H](CC[C@@H]4[C@@]5(C)CC[C@H](OC(=O)CC(C)(C)C(=O)O)C(C)(C)[C@@H]5CC[C@]43C)[C@@H]12 [Compound 3, 3-O-(3',3'-dimethylsuccinyl)-betulinic acid]
EC50 (HIV-1 [1]; Human immunodeficiency virus 1, Lymphocyte): < 0.017 nM | cytotoxicity in fusion assay (footnotes d, e, f) [5]: d (No noticeable cytotoxicity at 100 μg/mL)

C=C(C)[C@@H]1CC[C@]2(C(=O)O)CC[C@]3(C)[C@H](CC[C@@H]4[C@@]5(C)CC[C@H](OC(=O)COCC(=O)O)C(C)(C)[C@@H]5CC[C@]43C)[C@@H]12 [Compound 5, 3-O-diglycolyl-betulinic acid]
IC50 [3, 13]: > 175000 nM | IC100 [4]: 40 µg/mL | EC50 (HIV-1 [1]; [7]): 10 nM | EC50 (HIV-1 [1]; [15]): 10 ng/mL | T.I. (HIV-1 [1]; [9]): 1,172.0 | TI50 (HIV-1 [1]; Table 2, H9): 1,500 | cytotoxicity in fusion assay (footnotes d, e, f) [5]: e (Toxic to the cells at 80 μg/mL in oneday fusion assay)

CC1(C)Oc2ccc3ccc(=O)oc3c2[C@@H](OC(=O)[C@@]23CC[C@@](C)(C(=O)O2)C3(C)C)[C@H]1OC(=O)[C@@]12CC[C@@](C)(C(=O)O1)C2(C)C [DCK, 3',4'-di-O-(-)-camphanoyl-(+)-cis-khellactone]
therapeutic index (T.I.) (HIV-1 [2]; H9 lymphocyte cells, background): 136,719 | EC50 (HIV-1 [2]; HIV replication in H9 lymphocyte cells, background): 0.4 nM

CC(C)[C@@H]1CC[C@]2(C(=O)O)CC[C@]3(C)[C@H](CC[C@@H]4[C@@]5(C)CC[C@H](OC(=O)COCC(=O)O)C(C)(C)[C@@H]5CC[C@]43C)[C@@H]12 [Compound 10, 3-O-diglycolyl-dihydrobetulinic acid]
IC50 [3, 13]: > 174000 nM | IC100 [4]: 40 µg/mL | EC50 (HIV-1 [1]; [7]): 5.6 nM | EC50 (HIV-1 [1]; [15]): 3.2 ng/mL | T.I. (HIV-1 [1]; [9]): 2,344.0 | TI50 (HIV-1 [1]; Table 2, H9): 2,344 | cytotoxicity in fusion assay (footnotes d, e, f) [5]: e (Toxic to the cells at 80 μg/mL in oneday fusion assay)

C=C(C)[C@@H]1CC[C@]2(C(=O)O)CC[C@]3(C)[C@H](CC[C@@H]4[C@@]5(C)CC[C@H](O)C(C)(C)[C@@H]5CC[C@]43C)[C@@H]12 [Compound 1, betulinic acid, reference compound]
IC50 [3, 13]: > 219000 nM | EC50 (HIV-1 [2]; [12]): 1400 nM | IC100 [4]: > 100 µg/mL | EC50 (HIV-1 [1]; [7]): 1400 nM
